Target: human TYK2 (JH2domain-pseudokinase) (Homo sapiens (Human), UniProt P29597)
Assay: TYK2 JH2 Domain Binding Assay (KINOMEscan, DiscoveRx)
Settings: 11-point dilution, duplicate
How it was run: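 Kd from duplicate 11-point 3-fold dilutions starting at 30,000 nM, fitted by Hill equation with slope fixed at −1. Compounds (final 0.9% DMSO) displace DNA-tagged HEK293-expressed TYK2 JH2 fusion (<0.1 nM) from ligand-coated beads over 1 h at room temperature; eluted kinase read by qPCR.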

human TYK2 (JH2domain-pseudokinase), sequence (P29597 556-888): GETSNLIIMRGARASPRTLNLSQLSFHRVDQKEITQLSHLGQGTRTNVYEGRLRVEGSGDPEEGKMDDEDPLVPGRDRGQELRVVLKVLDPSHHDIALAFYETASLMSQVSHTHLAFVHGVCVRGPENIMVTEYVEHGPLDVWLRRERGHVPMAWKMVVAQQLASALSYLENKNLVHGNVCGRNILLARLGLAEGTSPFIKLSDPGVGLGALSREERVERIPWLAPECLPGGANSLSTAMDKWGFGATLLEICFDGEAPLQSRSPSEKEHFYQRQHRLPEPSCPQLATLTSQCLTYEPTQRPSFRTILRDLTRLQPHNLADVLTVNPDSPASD

Kd [nM]	Compound
0.5 to 1	COc1c(Nc2cc(Nc3cc(CO)ccn3)nc3[nH]cnc23)cccc1-c1ncn(C)n1 [I-5, (2-((7-((2-methoxy-3-(1-methyl-1H-1,2,4-triazol-3-yl)phenyl)amino)-3H-imidazo[4,5-b]pyridin-5-yl)amino)pyridin-4-yl)MeOH]
1 to 10	CS(=O)(=O)c1cc(C(F)(F)F)ccc1Nc1cc(NC(=O)C2CC2)nc2[nH]c(C(F)F)nc12 [I-258, N-(2-(difluoromethyl)-7-((2-(methylsulfonyl)-4-(trifluoromethyl)phenyl)amino)-3H-imidazo[4,5-b]pyridin-5-yl)cyclopropanecarboxamide]
1 to 10	CS(=O)(=O)c1cc(C2CCC2)ccc1Nc1cc(NC(=O)[C@H]2C[C@H]2F)nc2[nH]c(C(F)F)nc12 [I-432, (1R,2R)—N-(7-((4-cyclobutyl-2-(methylsulfonyl)phenyl)amino)-2-(difluoromethyl)-3H-imidazo[4,5-b]pyridin-5-yl)-2-fluorocyclopropane-1-carboxamide]
1 to 10	COc1c(Nc2cc(Nc3ccc(N4CCC4)cn3)nc3[nH]c(C(F)F)nc23)cccc1-c1ccn(C)n1 [I-31, N5-(5-(azetidin-1-yl)pyridin-2-yl)-2-(difluoromethyl)-N7-(2-methoxy-3-(1-methyl-1H-pyrazol-3-yl)phenyl)-3H-imidazo[4,5-b]pyridine-5,7-diamine]
< 0.1	Cc1nc2c(Nc3ccc(-c4cc(C)n(C)n4)cc3S(C)(=O)=O)cc(NC(=O)C3CC3)nc2[nH]1 [I-217, N-(7-((4-(1,5-dimethyl-1H-pyrazol-3-yl)-2-(methylsulfonyl)phenyl)amino)-2-methyl-3H-imidazo[4,5-b]pyridin-5-yl)cyclopropanecarboxamide]
< 0.1	Cc1nc2c(Nc3ccc(C4CC4)cc3S(C)(=O)=O)cc(Nc3cc4n(n3)CCOC4)nc2[nH]1 [I-437, N7-(4-cyclopropyl-2-(methylsulfonyl)phenyl)-N5-(6,7-dihydro-4H-pyrazolo[5,1-c][1,4]oxazin-2-yl)-2-methyl-3H-imidazo[4,5-b]pyridine-5,7-diamine]
0.5 to 1	CS(=O)(=O)c1cc([C@@H]2CCOC2)ccc1Nc1cc(NC(=O)C2CC2)nc2[nH]c(C(F)F)nc12 [I-452, (S)—N-(2-(difluoromethyl)-7-((2-(methylsulfonyl)-4-(tetrahydrofuran-3-yl)phenyl)amino)-3H-imidazo[4,5-b]pyridin-5-yl)cyclopropanecarboxamide]
0.1 to 0.5	CS(=O)(=O)c1cc(C2CC2)ccc1Nc1cc(NC(=O)C2CC2)nc2[nH]c(C(F)F)nc12 [I-203]
< 0.1	Cc1nc2c(Nc3ccc(-c4nn(C)cc4C)cc3S(C)(=O)=O)cc(NC(=O)C3CC3)nc2[nH]1 [I-241, N-(7-((4-(1,4-dimethyl-1H-pyrazol-3-yl)-2-(methylsulfonyl)phenyl)amino)-2-methyl-3H-imidazo[4,5-b]pyridin-5-yl)cyclopropanecarboxamide]
0.1 to 0.5	Cc1nc2c(Nc3ccc(C4CCOCC4)cc3S(C)(=O)=O)cc(NC(=O)C3CC3)nc2[nH]1 [I-226, N-(2-methyl-7-((2-(methylsulfonyl)-4-(tetrahydro-2H-pyran-4-yl)phenyl)amino)-3H-imidazo[4,5-b]pyridin-5-yl)cyclopropanecarboxamide]
0.1 to 0.5	Cc1nc2c(Nc3ccc(-c4ccc(C)o4)cc3S(C)(=O)=O)cc(NC(=O)C3CC3)nc2[nH]1 [I-419, N-(2-methyl-7-((4-(5-methylfuran-2-yl)-2-(methylsulfonyl)phenyl)amino)-3H-imidazo[4,5-b]pyridin-5-yl)cyclopropanecarboxamide]
0.5 to 1	Cc1nc2c(Nc3ccc(C4CCOCC4)cc3P(C)(C)=O)cc(NC(=O)C3CC3)nc2[nH]1 [I-431, N-(7-((2-(dimethylphosphoryl)-4-(tetrahydro-2H-pyran-4-yl)phenyl)amino)-2-methyl-3H-imidazo[4,5-b]pyridin-5-yl)cyclopropanecarboxamide]
< 0.1	Cc1nc2c(Nc3ccccc3N(C)S(C)(=O)=O)cc(Nc3cccc(C#N)n3)nc2[nH]1 [I-120, N-(2-((5-((6-cyanopyridin-2-yl)amino)-2-methyl-3H-imidazo[4,5-b]pyridin-7-yl)amino)phenyl)-N-methylmethanesulfonamide]
1 to 10	Cc1nc2c(Nc3ccc(-c4cncn4C)cc3N(C)S(C)(=O)=O)cc(NC(=O)[C@@H]3C[C@@H]3F)nc2[nH]1 [I-208, (1S,2S)-2-fluoro-N-(2-methyl-7-((4-(1-methyl-1H-imidazol-5-yl)-2-(N-methylmethylsulfonamido)phenyl)amino)-3H-imidazo[4,5-b]pyridin-5-yl)cyclopropane-1-carboxamide]
0.5 to 1	COc1c(Nc2cc(NC(=O)[C@@H]3C[C@@H]3F)nc3[nH]c(C(F)F)nc23)cccc1-c1ncn(C)n1 [I-296, (1S,2S)—N-(2-(difluoromethyl)-7-((2-methoxy-3-(1-methyl-1H-1,2,4-triazol-3-yl)phenyl)amino)-3H-imidazo[4,5-b]pyridin-5-yl)-2-fluorocyclopropane-1-carboxamide]
0.5 to 1	Cc1nc2c(Nc3ccc(C4CCCOC4)cc3S(C)(=O)=O)cc(NC(=O)C3CC3)nc2[nH]1 (stereo in doubt) [I-254, (R)—N-(2-methyl-7-((2-(methylsulfonyl)-4-(tetrahydro-2H-pyran-3-yl)phenyl)amino)-3H-imidazo[4,5-b]pyridin-5-yl)cyclopropanecarboxamide]
< 0.1	Cc1cc(Nc2cc(Nc3ccc(C4CCCCO4)cc3S(C)(=O)=O)c3nc(C(F)F)[nH]c3n2)nc(C)n1 (centres unmarked) [I-366, 2-(difluoromethyl)-N5-(2,6-dimethylpyrimidin-4-yl)-N7-(2-(methylsulfonyl)-4-(tetrahydro-2H-pyran-2-yl)phenyl)-3H-imidazo[4,5-b]pyridine-5,7-diamine]
> 10	COc1c(F)cccc1Nc1cc(NC(=O)C2CC2)nc2[nH]c(C(F)F)nc12 [I-20, N-(2-(difluoromethyl)-7-((3-fluoro-2-methoxyphenyl)amino)-3H-imidazo[4,5-b]pyridin-5-yl)cyclopropanecarboxamide]
< 0.1	COCCOc1ccc(Nc2cc(Nc3ccccc3S(C)(=O)=O)c3nc(C)[nH]c3n2)nc1C#N [I-620, 3-(2-methoxyethoxy)-6-((2-methyl-7-((2-(methylsulfonyl)phenyl)amino)-3H-imidazo[4,5-b]pyridin-5-yl)amino)picolinonitrile]
< 0.1	CS(=O)(=O)c1cc([C@H]2CCCCO2)ccc1Nc1cc(Nc2cc3n(n2)CCOC3)nc2[nH]c(C(F)F)nc12 [I-515, (R)-2-(difluoromethyl)-N5-(6,7-dihydro-4H-pyrazolo[5,1-c][1,4]oxazin-2-yl)-N7-(2-(methylsulfonyl)-4-(tetrahydro-2H-pyran-2-yl)phenyl)-3H-imidazo[4,5-b]pyridine-5,7-diamine]

Compound	Kd [nM]
Cc1ccc(Nc2cc(NC(=O)C3CC3)nc3[nH]c(C)nc23)c(N(C)S(C)(=O)=O)c1 [I-131, N-(2-methyl-7-((4-methyl-2-(N-methylmethylsulfonamido)phenyl)amino)-3H-imidazo[4,5-b]pyridin-5-yl)cyclopropanecarboxamide]	0.5 to 1
COc1c(Nc2cc(Nc3cccc(C#N)n3)nc3[nH]c(C(F)F)nc23)cccc1-c1noc(C)n1 [I-598, 6-((2-(difluoromethyl)-7-((2-methoxy-3-(5-methyl-1,2,4-oxadiazol-3-yl)phenyl)amino)-3H-imidazo[4,5-b]pyridin-5-yl)amino)picolinonitrile]	0.5 to 1
CS(=O)(=O)c1cc([C@@H]2CCC(F)(F)CO2)ccc1Nc1cc(NC(=O)C2CC2)nc2[nH]c(C(F)F)nc12 [I-594, (S)—N-(2-(difluoromethyl)-7-((4-(5,5-difluorotetrahydro-2H-pyran-2-yl)-2-(methylsulfonyl)phenyl)amino)-3H-imidazo[4,5-b]pyridin-5-yl)cyclopropanecarboxamide]	0.1 to 0.5
Cc1nc2c(Nc3ccc(N4CCC4)cc3N(C)S(C)(=O)=O)cc(NC(=O)C3CC3)nc2[nH]1 [I-129, N-(7-((4-(azetidin-1-yl)-2-(N-methylmethylsulfonamido)phenyl)amino)-2-methyl-3H-imidazo[4,5-b]pyridin-5-yl)cyclopropanecarboxamide]	1 to 10
Cc1nc2c(Nc3ccc(-c4nc(C)c(C)s4)cc3S(C)(=O)=O)cc(Nc3cnc(C)c(C)n3)nc2[nH]1 [I-466, N5-(5,6-dimethylpyrazin-2-yl)-N7-(4-(4,5-dimethylthiazol-2-yl)-2-(methylsulfonyl)phenyl)-2-methyl-3H-imidazo[4,5-b]pyridine-5,7-diamine]	0.5 to 1
CS(=O)(=O)c1cc([C@@H]2CCCO2)ccc1Nc1cc(NC(=O)[C@@H]2CC2(F)F)nc2[nH]c(C(F)F)nc12 [I-316, (S)—N-(2-(difluoromethyl)-7-((2-(methylsulfonyl)-4-((S)-tetrahydrofuran-2-yl)phenyl)amino)-3-imidazo[4,5-b]pyridin-5-yl)-2,2-difluorocyclopropane-1-carboxamide]	0.5 to 1
COc1cc(-c2nn(C)cc2C)ccc1Nc1cc(NC(=O)C2CC2)nc2[nH]c(C)nc12 [I-555, N-(7-((4-(1,4-dimethyl-1H-pyrazol-3-yl)-2-methoxyphenyl)amino)-2-methyl-3H-imidazo[4,5-b]pyridin-5-yl)cyclopropanecarboxamide]	0.5 to 1
COc1c(Nc2cc(NC(=O)C3CC3)nc3[nH]c(C)nc23)cccc1-n1ncnc1C [I-162, N-(7-((2-methoxy-3-(5-methyl-1H-1,2,4-triazol-1-yl)phenyl)amino)-2-methyl-3H-imidazo[4,5-b]pyridin-5-yl)cyclopropanecarboxamide]	> 10
Cc1ccc(Nc2cc(Nc3cnc(C)c(C)n3)nc3[nH]c(C(F)F)nc23)c(N(C)S(C)(=O)=O)c1 [I-97, N-(2-((2-(difluoromethyl)-5-((5,6-dimethylpyrazin-2-yl)amino)-3H-imidazo[4,5-b]pyridin-7-yl)amino)-5-methylphenyl)-N-methylmethanesulfonamide]	> 10
